The source made the active and inactive calls. The rule behind the calls is not given here. Where a SMILES comes first, the peptide text is derived from it. [ ]: non-standard residue; d: D form. The star is where a group is joined. X1 = CC(=O)NCc1ccccc1-n1c(C)nnc1CN*; Lys(Me2) = CN(C)CCCC[C@H](N)C(=O)O Some results are limits rather than exact numbers.

Test [1] concerns the target T1, Histone-lysine N-methyltransferase SETDB1 (Homo sapiens, UniProt Q15047). The test can be described thus: Binding affinity to N-terminal His6-tagged human SETDB1 Tudor domain (197 to 403 residues) expressed in Escherichia coli BL21(DE3)-pRARE2 cells assessed as induction of HSQC shift at 5 mM by 1H-15 N HSQC-TROSY NMR spectroscopy.
Test [2] deals with T1, Histone-lysine N-methyltransferase SETDB1. Briefly: Binding affinity to N-terminally biotinylated human SETDB1 Tudor domain (197 to 403 residues) expressed in Escherichia coli BL21(DE3)-pRARE2 cells by SPR analysis.
For test [3] the target is unchanged. The test can be described thus: Binding affinity to N-terminal His6-tagged human SETDB1 Tudor domain (197 to 403 residues) expressed in Escherichia coli BL21(DE3)-pRARE2 cells by ITC assay.
Test [4] shares this target. The test can be described thus: Binding affinity to N-terminal His6-tagged human SETDB1 Tudor domain (197 to 403 residues) expressed in Escherichia coli BL21(DE3)-pRARE2 cells assessed as induction of HSQC shift at 10 mM by 1H-15 N HSQC-TROSY NMR spectroscopy.

As to `Cc1nnc(C)n1-c1ccccc1C(=O)O`, the result in test [1] was inactive.

Turning to `CC(=O)NCc1cc(C)ccc1-n1c(C)nnc1C`, in test [2], the Kd came out at 7.7 mM.

Regarding `Cc1nnc(C)n1-c1ccccc1CNS(C)(=O)=O`, the Kd in test [3] and in test [2] was 4 to 17 mM each time. In test [1], the result was Active.

`CC(=O)NCc1ccccc1-n1c(C)nnc1CNC(=O)CNC(=O)[C@@H](NC(=O)[C@H](CO)NC(=O)[C@@H](N)CCCCN(C)C)[C@@H](C)O` (H-[Lys(Me2)]STG-X1) displayed a Kd in test [2] of 1.27 mM. Also, the outcome in test [1] was Active.

With `CC(=O)NCc1cc(C#N)ccc1-n1c(C)nnc1C`, the affinity in test [2], expressed as Kd, was 10 mM.

For `CC(=O)NCc1ccccc1-n1c(C)nnc1C`, the Kd in test [3] and in test [2] was 3.5 mM in each case. Moreover, the outcome in test [1] was Active.

On to `CNC(=O)NCc1ccccc1-n1c(C)nnc1C`, for which, in test [1], the result was inactive.

Take `Cc1nnc2n1-c1ccccc1COC2`: the result in test [1] was Active.

`CC(C)(C)NC(=O)[C@@H]1Cc2ccccc2CN1`: in test [4], the Activity is more than 0.2 ppm.

For `CC(=O)NCc1cc(Br)ccc1-n1c(C)nnc1C`, in test [2], the Kd was found to be 2.7 mM.

As for `CC(=O)NCc1cc(Cl)ccc1-n1c(C)nnc1C`, binding in test [2] was put at a Kd of 2.5 mM.

(Values after ChEMBL document CHEMBL4385651, “Identification and characterization of the first fragment hits for SETDB1 Tudor domain” (Bioorg Med Chem, 2019).)
